In assay [1] the test system is PSMA-expressing prostate cancer cells (LNCaP-wt, PC3-hPSMA) and PC3-wt. As to the kind of experiment: Cytoplasmic calcium quantification (Fluo4 assay). The format is cell-based, human. The protocol:
Cells were seeded at a density of 10,000 per well on a 96-well plate and grown overnight. Loading of the calcium-sensing dye Fluo4 (Life Technologies, Calrsbad, Calif.) was performed according to the manufacturer's instructions. Where indicated the cells were treated with thapsigargin (1 μM, Tocris, Minneapolis, Minn.), L-Quisqualic acid (110 μM, Tocris), 3,5-DHPG (0.67 mM, Tocris), L-AP3 (125 μM, Tocris), U73122 (50 μM, Tocris), and 2-PMPA (100 μM, Tocris) immediately before measuring calcium levels, with a SpectraMax M5 plate reader (Molecular Devices, Sunnyvale, Calif.).
The effect of PSMA expression on calcium homeostasis in prostate cancer cell lines was evaluated using the fluorimetric Fluo4 assay kit (Invitrogen), according to the supplier's instructions. The plate was excited at 490 nm, and fluorescence emission was monitored at 520 nm with the SpectraMax M5 plate reader (Molecular Devices). […] To examine calcium accumulation in the cytoplasm, the cells were treated with thapsigargin (1 μM, Tocris) immediately prior to taking measurements with the plate reader. […] Furthermore, we investigated whether PSMA facilitates calcium signaling via the mGluR Group I receptors through its enzymatic activity. The cells were treated with either L-Quisqualic acid (110 μM; mGluR I agonist, Tocris), L-AP3 (125 μM; mGluR I antagonist, Tocris) or a PSMA inhibitor (100 μM, Tocris), immediately prior to taking calcium measurements.

Assay [2] has as its system LNCaP, LNCaP-KD, PC3-PSMA and PC3-wt cells. Briefly: In vitro chemotherapy, cell viability (Alamar blue). The conditions noted are these: 200 nM, overnight. The protocol:
Cells were seeded in a 96-well format (2,500 cells per well), and grown for 48 h. They were then treated with the following drugs at a final concentration of 200 nM: Doxorubicin, Taxol, AZD6244, BEZ235, Lapatinib, and Velcade (all purchased from Selleck Chemicals, Houston, Tex.). For combination therapy, cells were treated with 2-PMPA (5 μM final concentration). After overnight incubation in the presence of the drugs, cell viability was determined with the Alamar blue method according to the supplier's guidelines (Life Technologies, Carlsbad, Calif.)
Given that PSMA affects the phosphorylation status of multiple targets, it was investigated whether inhibition of PSMA can counteract resistance to various chemotherapeutics used in the clinic or under clinical trials. LNCaP and PCS3-PSMA cells were seeded at a density of 2,500 cells per well in a 96-well format, and after 48 hours growth the cells were treated with the drugs (Doxorubicin (Adriamycin; DNA intercalator), Taxol (Paclitaxel; microtubule stabilizer), AZD6244 (Selumetinib; MEK1 & ERK1/2 inhibitor), BEZ235 (Dactolisib; PI3K & mTOR inhibitor), Lapatinib (EGFR and ErbB2 inhibitor), or Velcade (Bortezomib; 20S proteasome inhibitor), 200 nM final concentration in 1×PBS) or with the drugs (200 nM final concentration) and 2-PMPA (5 μM final concentration). After overnight incubation, cell viability was assessed fluorimetrically with the Alamar blue method (Invitrogen), according to the supplier's protocol.
On the technique in general: The colour change of resazurin is a common sign of viable cells or microbes.

Turning to `N[C@@H](CP(=O)(O)O)C(=O)O` [L-AP3], the cytoplasmic calcium levels entry in assay [1] (PSMA-expressing cells, PSMA inhibitor 100 μM, L-AP3 125 μM, FIG. 1c) is recorded as “lowered calcium levels”.
For `COc1ccc2c(c1)CC[C@@H]1[C@@H]2CC[C@]2(C)[C@@H](NCCCCCCN3C(=O)C=CC3=O)CC[C@@H]12` [U73122], the cytoplasmic calcium levels result in assay [1] (PSMA inhibition compared with Phospholipase C inhibitor U73122 50 μM, FIG. 1d) is reported as “reduction in calcium levels”.
In the case of `CC(C)C[C@H](NC(=O)[C@H](Cc1ccccc1)NC(=O)c1cnccn1)B(O)O` [Velcade, Bortezomib], the “sensitivity of PC3-wt cells compared with PC3-PSMA” value in assay [2] is given as “more sensitive”.
As to `C/C=C(/C)C(=O)O[C@H]1C(C)=C2[C@H]([C@@H]1OC(=O)CCCCCCC)[C@@](C)(OC(C)=O)C[C@H](OC(=O)CCC)[C@@]1(O)[C@H]2OC(=O)[C@@]1(C)O` [thapsigargin], the “calcium accumulation in the cytoplasm” value in assay [1] (thapsigargin 1 μM, PSMA-expressing cells versus PC3-wt, FIG. 1b) is reported as “significant buildup of calcium in their cytoplasm”.

(Values after patent US20170252433A1, “PSMA-RELATED THERAPIES” (Memorial Sloan Kettering Cancer Center, priority 2014, published 2017).)
